From BindingDB's records for doi:10.3109/14756366.2011.595713 (Suven Life Sciences Ltd, 2012)

Molecular target: 5-hydroxytryptamine receptor 6 (Homo sapiens, UniProt P50406)
Test: Radioligand-Binding Assay
Settings: pH 7.4; 37 °C
Experimental: In brief, receptor source and radioligand used were human recombinant expressed in HEK-293 cells and [3H] LSD (60-80 Ci/mmol), respectively. The final ligand concentration was 1.5 nM and non-specific determinant was methiothepin mesylate ([…]). The reference compound and positive control is methiothepin mesylate. Reactions were carried out in 50 mM Tris-HCl (pH 7.4) containing 10 mM MgCl2, 0.5 mM EDTA for 60 min at 37°C. The reaction was terminated by rapid vacuum filtration onto glass fibre filters.

5-hydroxytryptamine receptor 6, sequence (P50406 whole entry): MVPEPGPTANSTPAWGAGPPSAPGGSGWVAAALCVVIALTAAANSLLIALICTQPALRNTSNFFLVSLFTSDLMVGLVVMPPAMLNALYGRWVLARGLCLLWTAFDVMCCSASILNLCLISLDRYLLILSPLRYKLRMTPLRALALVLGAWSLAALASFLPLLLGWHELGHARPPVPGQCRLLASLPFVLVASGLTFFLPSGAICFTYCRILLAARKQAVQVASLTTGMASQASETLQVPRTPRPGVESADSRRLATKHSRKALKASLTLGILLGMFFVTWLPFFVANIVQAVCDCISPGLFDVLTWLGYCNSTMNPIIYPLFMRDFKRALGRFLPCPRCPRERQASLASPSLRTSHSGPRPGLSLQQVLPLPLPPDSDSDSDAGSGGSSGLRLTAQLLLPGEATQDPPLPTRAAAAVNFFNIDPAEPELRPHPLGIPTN

| SMILES | Ki [nM] |
| --- | --- |
| CC(CC1=C2c3ccccc3S(=O)(=O)C2c2ccc(OCc3ccccc3)cc21)N(C)C (stereo unspecified) [2-Benzyloxy-10-[(2-N,N-dimethylamino-2-methyl)ethyl]benzo[d]isothiazolo[3,2-a]indol-S,S-dioxide (18)] | 100 |
| CC(CC1=C2c3ccccc3S(=O)(=O)C2c2ccc(Br)cc21)N(C)C (stereo unspecified) [2-Bromo-10-[(2-N,N-dimethylamino-2-methyl)ethyl]benzo[d]isothiazolo[3,2-a]indol-S,S-dioxide (13)] | 54.1 |
| CC(C)Oc1ccc2c(c1)C(CC(C)N(C)C)=C1c3ccccc3S(=O)(=O)C12 (stereo unspecified) [2-Isopropoxy-10-[(2-N,N-dimethylamino-2-methyl)ethyl]benzo[d] isothiazolo[3,2-a]indol-S,S-dioxide (19)] | 239 |
| CN(C)CCC1=C2c3ccccc3S(=O)(=O)C2c2ccccc21 (stereo unspecified) [10-(2-N,N-Dimethylaminoethyl)benzo[d]isothiazolo[3,2-a]indol-S,S-dioxide (6)] | 246 |
| CN(C)CCC1=C2c3ccccc3CC2c2c1ccc1ccccc21 (stereo unspecified) [10-(2-N,N-dimethylaminoethyl)benzo[d]isoindolo[2,1-a]indole (28)] | 92.6 |

The next lines start with the values.

| Ki [nM] | SMILES |
| --- | --- |
| > 1000 | CC(CC1=C2c3ccccc3S(=O)(=O)C2c2ccc(OCC3CCCCC3)cc21)N(C)C (stereo unspecified) [2-Cyclohexylmethyloxy-10-[(2-N,N-dimethylamino-2-methyl)ethyl]benzo[d] isothiazolo[3,2-a]indol-S,S-dioxide (20)] |
| 11.1 | CCOc1ccc2c(c1)C(CC(C)N(C)C)=C1c3ccccc3S(=O)(=O)C12 (stereo unspecified) [2-Ethoxy-10-[(2-N,N-dimethylamino-2-methyl)ethyl]benzo[d]isothiazolo[3,2-a]indol-S,S-dioxide (17)] |
| 96 | COc1ccc2c(c1)C(CCN(C)C)=C1c3ccccc3S(=O)(=O)C12 (stereo unspecified) [2-Methoxy-10-(2-N,N-dimethylaminoethyl)benzo[d]isothiazolo[3,2-a]indol-S,S-dioxide (14)] |
| 28.3 | CCC(CC1=C2c3ccccc3S(=O)(=O)C2c2ccc(OC)cc21)N(C)C (stereo unspecified) [2-Methoxy-10-[(2-N,N-dimethylamino-2-ethyl)ethyl]benzo[d]isothiazolo[3,2-a]indol-S,S-dioxide (16)] |
| 11.6 | COc1ccc2c(c1)C(CC(C)N(C)C)=C1c3ccccc3S(=O)(=O)C12 (stereo unspecified) [2-Methoxy-10-[(2-N,N-dimethylamino-2-methyl)ethyl)]benzo[d]isothiazolo[3,2-a]indol-S,S-dioxide (15)] |
| 267 | CN(C)CCC1=C2c3ccccc3S(=O)(=O)C2c2ccc(F)cc21 (stereo unspecified) [10-(2-N,N-Dimethylaminoethyl)-2-fluorobenzo[d]isothiazolo[3,2-a]indol-S,S-dioxide (7)] |
